Where two headings read alike, the source gives them in different places. Some results are limits rather than exact numbers.

One data set concerns the target T1, recombinant human HDAC6 (Homo sapiens, UniProt Q9UBN7).
T1 sequence (Q9UBN7 1-1215): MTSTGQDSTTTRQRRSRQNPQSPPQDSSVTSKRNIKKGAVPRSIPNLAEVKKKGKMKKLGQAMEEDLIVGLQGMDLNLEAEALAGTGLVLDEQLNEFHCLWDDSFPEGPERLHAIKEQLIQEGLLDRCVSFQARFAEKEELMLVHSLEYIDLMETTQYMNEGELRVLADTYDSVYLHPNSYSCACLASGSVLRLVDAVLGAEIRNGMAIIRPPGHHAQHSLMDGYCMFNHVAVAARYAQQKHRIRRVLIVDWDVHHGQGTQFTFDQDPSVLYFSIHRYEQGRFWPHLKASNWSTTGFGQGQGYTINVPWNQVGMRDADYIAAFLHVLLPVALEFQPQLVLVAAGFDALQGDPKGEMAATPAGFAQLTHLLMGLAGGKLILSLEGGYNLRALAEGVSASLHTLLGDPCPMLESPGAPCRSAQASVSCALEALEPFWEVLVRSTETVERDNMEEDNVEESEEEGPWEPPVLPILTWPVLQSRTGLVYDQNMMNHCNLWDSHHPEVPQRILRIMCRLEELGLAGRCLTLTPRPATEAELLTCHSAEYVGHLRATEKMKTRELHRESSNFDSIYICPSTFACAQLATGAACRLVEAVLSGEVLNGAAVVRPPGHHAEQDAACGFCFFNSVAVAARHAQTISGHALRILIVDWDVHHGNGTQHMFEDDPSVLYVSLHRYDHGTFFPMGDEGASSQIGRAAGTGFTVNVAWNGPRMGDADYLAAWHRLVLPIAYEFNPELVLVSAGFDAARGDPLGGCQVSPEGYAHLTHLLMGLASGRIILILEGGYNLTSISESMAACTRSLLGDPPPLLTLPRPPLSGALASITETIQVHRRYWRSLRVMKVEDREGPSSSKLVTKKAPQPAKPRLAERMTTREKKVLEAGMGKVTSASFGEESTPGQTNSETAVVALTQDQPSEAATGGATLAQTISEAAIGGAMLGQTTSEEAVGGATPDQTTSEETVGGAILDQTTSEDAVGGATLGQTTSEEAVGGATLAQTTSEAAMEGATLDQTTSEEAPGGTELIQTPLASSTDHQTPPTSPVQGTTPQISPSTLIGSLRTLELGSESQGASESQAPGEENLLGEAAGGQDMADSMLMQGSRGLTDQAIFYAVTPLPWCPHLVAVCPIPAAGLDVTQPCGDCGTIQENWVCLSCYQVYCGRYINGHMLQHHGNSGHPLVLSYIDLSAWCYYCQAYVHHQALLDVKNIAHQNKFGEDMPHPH
The experiment in a line: Enzymatic screening on recombinant human HDAC6. The following applies: read-out: HDAC6 IC50. It counts as biochemical. The procedure, abridged:
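Compound + recombinant human HDAC, 30 °C, incubation time isoform-specific. Substrate (FdL, FdL-Green or Tfal) added as 2× stock in 25 mM Tris-HCl pH 8/130 mM NaCl/0.05% Tween-20/10% glycerol; reaction at 30 °C.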

The target of another data set is T2, HDAC1 (Homo sapiens, UniProt Q13547).
T2 construct: purchased BPS 50051
The experiment in a line: Enzymatic test HDAC1. It counts as biochemical. The following applies: Table 3.

For a further data set, the target named is T3, HDAC2 (Homo sapiens, UniProt Q92769).
T3 construct: purchased BPS 50002
The experiment in a line: Enzymatic test HDAC2. The data set is classed as biochemical. Conditions: Table 3.

The target in a further data set is T4, HDAC5 (Homo sapiens, UniProt Q9UQL6).
T4 construct: purchased BPS 50005
The experiment in a line: Enzymatic test HDAC5. The data set is classed as biochemical. The following applies: Table 3. On the procedure: After a period of incubation at 30° C. (incubation times vary for different isoforms and are shown in table 1) 25 μL of solution containing the substrate were added. As substrate, FLUOR DE LYS® deacetylase substrate (Enzo Life Sciences, cat #BML-K1104, FdL), FLUOR DE LYS®-Green substrate (Enzo Life Sciences, cat #BML-K1572 FdL_G) and trifluoroacetyl-L-lysine (Tfal)-2× concentrated solution in 25 mM Tris-HCl, pH 8, 130 mM NaCl 0.05% Tween-20 10% glycerol) were used. Following a reaction period at 30° C.

For data set [1], the system named is B 697 promyelocytic cell line. The experiment in a line: Cytotoxicity on 697 cell line (CellTiter 96). The data set is classed as cell-based. Conditions: 72 hours incubation, read-out: 697 TOXICITY
The procedure, abridged:
(§1)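 Mitochondrial-function readout (CellTiter 96 Aqueous One) after 72 h compound exposure, begun 24 h post-seeding. Dose ranges: 697 cells, 1 to 10000 nM at 2×10^4 cells/well; PBMCs, 1.5 to 10000 nM at 5×10^5 cells/well.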

Data set [2] concerns peripheral blood mononuclear cells (PBMCs). As to the kind of experiment: Cytotoxicity on PBMCs (CellTiter 96). It counts as cell-based. Conditions: PBMC, 72 h; read-out: PBMC TOXICITY (72 h). The procedure, abridged:
as §1

Data set [3] is described as follows: Stability to Phase I metabolism in rat S9 liver fraction. It counts as in vitro ADME. Conditions: after 90 min, 37° C. The procedure, abridged: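 Phase I stability in human and rat hepatic S9 at 37 °C, sampled up to 90 min. Samples were stopped with acidified acetonitrile on ice, then quantified by HPLC-UV or LC-MS/MS.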
The next data set in a line: Stability in rat plasma. The data set is classed as in vitro ADME. The following applies: after 4 hours, 37° C. The procedure, abridged:
(§2)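 Compounds incubated at 37° C in rat or human plasma at 50 μM (UV/HPLC) or 1 or 2 μM (LC-MS/MS) for 0–4 h. Reaction stopped with acidified acetonitrile on ice; percent remaining versus initial amount and plasma half-life calculated.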

The nature of data set [4]: Stability in human plasma. The data set is classed as in vitro ADME. Conditions: after 4 hours, 37° C. The procedure, abridged:
as §2

T2 sequence (Q13547 whole entry): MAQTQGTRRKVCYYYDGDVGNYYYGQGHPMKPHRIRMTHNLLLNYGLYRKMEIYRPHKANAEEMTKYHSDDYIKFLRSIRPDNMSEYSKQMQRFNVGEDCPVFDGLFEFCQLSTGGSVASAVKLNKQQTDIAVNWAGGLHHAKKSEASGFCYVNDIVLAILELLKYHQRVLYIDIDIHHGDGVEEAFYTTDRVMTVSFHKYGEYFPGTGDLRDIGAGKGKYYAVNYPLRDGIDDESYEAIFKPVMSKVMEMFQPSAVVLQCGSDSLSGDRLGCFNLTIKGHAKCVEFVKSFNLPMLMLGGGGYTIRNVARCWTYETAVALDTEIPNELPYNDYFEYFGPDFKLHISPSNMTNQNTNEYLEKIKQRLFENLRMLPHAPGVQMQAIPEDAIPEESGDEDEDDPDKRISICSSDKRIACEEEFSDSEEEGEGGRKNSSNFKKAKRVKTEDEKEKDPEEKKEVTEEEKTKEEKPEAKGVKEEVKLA
T4 sequence (Q9UQL6 656-1122 limits assumed): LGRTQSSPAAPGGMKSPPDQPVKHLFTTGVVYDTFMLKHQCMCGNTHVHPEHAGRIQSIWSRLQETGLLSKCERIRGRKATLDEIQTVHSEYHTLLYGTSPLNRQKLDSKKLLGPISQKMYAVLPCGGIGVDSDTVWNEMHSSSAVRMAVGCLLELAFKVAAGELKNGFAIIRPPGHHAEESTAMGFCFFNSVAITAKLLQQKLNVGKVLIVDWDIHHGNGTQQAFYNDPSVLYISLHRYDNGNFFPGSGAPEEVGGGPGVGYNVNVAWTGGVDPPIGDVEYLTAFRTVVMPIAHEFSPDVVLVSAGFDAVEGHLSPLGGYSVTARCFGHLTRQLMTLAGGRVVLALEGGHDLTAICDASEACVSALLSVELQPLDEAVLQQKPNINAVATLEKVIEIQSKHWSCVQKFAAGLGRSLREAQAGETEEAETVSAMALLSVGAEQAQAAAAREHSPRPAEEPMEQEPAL
T3 sequence (Q92769 whole entry): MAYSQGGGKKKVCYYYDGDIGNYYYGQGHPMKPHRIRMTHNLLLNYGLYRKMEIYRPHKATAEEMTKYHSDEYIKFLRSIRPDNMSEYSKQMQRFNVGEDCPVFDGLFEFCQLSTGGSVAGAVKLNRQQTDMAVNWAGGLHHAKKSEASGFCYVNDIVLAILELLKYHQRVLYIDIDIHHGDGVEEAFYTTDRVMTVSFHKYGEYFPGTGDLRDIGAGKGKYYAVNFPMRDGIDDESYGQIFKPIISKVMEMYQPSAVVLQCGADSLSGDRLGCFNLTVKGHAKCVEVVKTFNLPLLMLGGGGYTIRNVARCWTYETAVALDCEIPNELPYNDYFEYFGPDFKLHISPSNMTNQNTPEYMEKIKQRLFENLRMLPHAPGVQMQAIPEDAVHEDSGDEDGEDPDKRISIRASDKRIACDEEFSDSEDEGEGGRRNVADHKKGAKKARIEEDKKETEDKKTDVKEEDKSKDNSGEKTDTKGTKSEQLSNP

Take `COc1ccc(C(=O)N[C@@H](Cc2cscn2)c2nc(Cc3ccc(C(=O)NO)cc3)no2)cc1OC` [comp. 1, (S)—N-(1-(3-(4-(hydroxycarbamoyl)benzyl)-1,2,4-oxadiazol-5-yl)-2-(thiazol-4-yl)ethyl)-3,4-dimethoxybenzamide]: the IC50 stood at 81 nM on recombinant human HDAC6 (Table 2); 81 nM at recombinant human HDAC6 (Table 3); 1.93 µM at HDAC1; 6.66 µM at HDAC2; 12000 nM against HDAC5; 10.4 µM in data set [1]. The IC50 in data set [2] was found to be 7 µM. For the same molecule, in [3], the “residual percentage in rat S9 fraction” value is 70%. In addition, in the data set “Stability in rat plasma”, the “residual percentage in rat plasma” value worked out at 86%. The “residual percentage in human plasma” value in data set [4] came out at 102%.

Turning to `Cn1c(Sc2c(F)cc(C(=O)NO)cc2F)nnc1-c1cccc2ccccc12` [comp. 2, 3,5-difluoro-N-hydroxy-4-((4-methyl-5-(naphthalen-1-yl)-4H-1,2,4-triazol-3-yl)thio)benzamide], the IC50 at recombinant human HDAC6 (Table 2) is 16 nM; at recombinant human HDAC6 (Table 3), 16 nM; against HDAC1, 11.6 µM; against HDAC2, more than 30 µM; on HDAC5, 1850 nM; in data set [1], 6.08 µM. In addition, the IC50 in data set [2] was more than 1 µM. Further, in [3], the “residual percentage in rat S9 fraction” value was determined as 1%. Further, the “residual percentage in rat plasma” value in the data set “Stability in rat plasma” is 79%. For the same molecule, in data set [4], the “residual percentage in human plasma” value is recorded as 71%.

`Cn1c(Sc2ccc(C(=O)NO)cc2)nnc1-c1cccs1` [comp. 10, N-hydroxy-4-((4-methyl-5-(thiophen-2-yl)-4H-1,2,4-triazol-3-yl)thio)benzamide]: the IC50 at recombinant human HDAC6 (Table 2) is 8 nM; at recombinant human HDAC6 (Table 3), 9 nM; at HDAC1, 1.02 µM; on HDAC2, 4.45 µM; on HDAC5, 2680 nM; in [1] it was 4.33 µM. Also, the IC50 in [2] was 4.5 µM. The “residual percentage in rat S9 fraction” value in [3] amounted to 82%. The “residual percentage in rat plasma” value in the data set “Stability in rat plasma” amounted to 86%. For the same molecule, the “residual percentage in human plasma” value in [4] is 99%.

As to `O=C(NO)c1cc(F)c(Cn2nnc(-c3ccccn3)n2)c(F)c1` [comp. 6, 3,5-difluoro-N-hydroxy-4-((5-(pyridin-2-yl)-2H-tetrazol-2-yl)methyl)benzamide], the IC50 on recombinant human HDAC6 (Table 2) was 7 nM; on recombinant human HDAC6 (Table 3) it was 7 nM; against HDAC1 it was 7.51 µM; against HDAC2, 27.5 µM; against HDAC5 it was 1050 nM; in data set [1], more than 10 µM. In [2], the IC50 was determined as 20 µM. The “residual percentage in rat S9 fraction” value in data set [3] is 96.6%. Moreover, in the data set “Stability in rat plasma”, the “residual percentage in rat plasma” value was 87%. Also, the “residual percentage in human plasma” value in data set [4] was determined as 96%.

With `O=C(NO)c1cc(F)c(Cn2nnnc2-c2cccs2)c(F)c1` [comp. 15, 3,5-difluoro-N-hydroxy-4-((5-(thiophen-2-yl)-1H-tetrazol-1-yl)methyl)benzamide], the IC50 at recombinant human HDAC6 (Table 2) came to 19 nM; at recombinant human HDAC6 (Table 3) it was 19 nM; against HDAC1, 7.09 µM; against HDAC2, 8.8 µM; against HDAC5, 706 nM; in data set [1], 8.72 µM. In addition, in [2], the IC50 was more than 10 µM. Besides, the “residual percentage in rat S9 fraction” value in data set [3] was determined as 60%. The “residual percentage in rat plasma” value in “Stability in rat plasma” worked out at 78%. For the same molecule, in data set [4], the “residual percentage in human plasma” value was 91%.

As to `O=C(NO)c1cc(F)c(Cn2nnc(-c3ccco3)n2)c(F)c1` [comp. 19, 3,5-difluoro-4-((5-(furan-2-yl)-2H-tetrazol-2-yl)methyl)-N-hydroxybenzamide], the IC50 at recombinant human HDAC6 (Table 2) is 4 nM; at recombinant human HDAC6 (Table 3), 4 nM; at HDAC1, 2.52 µM; against HDAC2, 9.48 µM; on HDAC5, 597 nM; in data set [1], 1.16 µM. For the same molecule, in data set [2], the IC50 was more than 10 µM. Further, the “residual percentage in rat S9 fraction” value in [3] is 68%. The “residual percentage in rat plasma” value in the data set “Stability in rat plasma” was determined as 96%. Further, the “residual percentage in human plasma” value in data set [4] was determined as 100%.

The values above are taken from patent publication US11351178B2, “Selective HDAC6 inhibitors” (ITALFARMACO S.P.A., priority 2017, dated 2022).
